# Earlier results as cited in US6020121A (priority 1996, dated 2000).
# System: production of several toxins
# Details: Agr independent; cited from earlier work
smiles,measurement,value
"CCCCCCCCCCCC(=O)OCC(O)CO (stereo not shown) [GML, Glycerol monolaureate, reference compound]",production of several toxins,lower the production of several toxins in an Agr independent manner
